COc1c(O)cc2c(c1O)[C@@H]1O[C@H](CO)[C@@H](O)[C@H](O)[C@H]1OC2=O
solubility (mole fraction)
Conditions | 298.15 K | 303.15 K | 308.15 K | 313.15 K | 318.15 K
in DMSO | 0.0168 | 0.0182 | 0.0198 | 0.0212 | 0.0229
in water | 7.5e-05 | 9.88e-05 | 0.000123 | 0.000151 | 0.000185
